We go through 28 molecules from patent US8466188B2, “Use of spiro-oxindole compounds as therapeutic agents” (Xenon Pharmaceuticals Inc., priority 2006, dated 2013).

One series relates to sodium channel. As to the kind of experiment: Guanidine influx assay (14C-guanidine radiotracer flux) in a known cell line that expresses a sodium channel. The class given is cell-based, human or rat. From the text:
This example describes an in vitro assay for testing and profiling test agents against human or rat sodium channels stably expressed in cells of either an endogenous or recombinant origin.
The guanidine influx assay is a radiotracer flux assay used to determine ion flux activity of sodium channels in a high-throughput microplate-based format. The assay uses ^14C-guanidine hydrochloride in combination with various known sodium channel modulators, to assay the potency of test agents. Potency is determined by an IC50 calculation. Selectivity is determined by comparing potency of the compound for the channel of interest to its potency against other sodium channels (also called ‘selectivity profiling’).
Each of the test agents is assayed against cells that express the sodium channel of interest. Voltage gated sodium channels are either TTX sensitive or insensitive. This property is useful when evaluating the activities of a channel of interest when it resides in a mixed population with other sodium channels. The following Table 1 lists certain cell lines which are useful in screening for a certain sodium channel activity in the presence or absence of TTX.
It is also possible to employ recombinant cells expressing these sodium channels.
Cells expressing the channel of interest are grown according to the supplier or in the case of a recombinant cell in the presence of selective growth media such as G418 (Gibco/Invitrogen). The cells are disassociated from the culture dishes with an enzymatic solution (1×) Trypsin/EDTA (Gibco/Invitrogen) and analyzed for density and viability using haemocytometer (Neubauer). Disassociated cells are washed and resuspended in their culture media then plated into Scintiplates (Beckman Coulter Inc.) (approximately 100,000 cells/well) and incubated at 37° C./5% CO2 for 20-24 hours. After an extensive wash with Low sodium HEPES-buffered saline solution (LNHBSS) (150 mM Choline Chloride, […] (Sigma), 1 mM Calcium Chloride, 5 mM Potassium Chloride, 1 mM Magnesium Chloride, 10 mM Glucose) agents diluted with LNHBSS are added to each well. (Varying concentrations of test agent may be used). The activation/radiolabel mixture contains aconitine (Sigma), and ^14C-guanidine hydrochloride (ARC).
After loading the cells with test agent and activation/radiolabel mixture, the Scintiplates are incubated at ambient temperature. Following the incubation, the Scintplates are extensively washed with LNHBSS supplemented with guanidine (Sigma). The Scintiplates are dried and then counted using a Wallac MicroBeta TriLux (Perkin-Elmer Life Sciences). The ability of the test agent to block sodium channel activity is determined by comparing the amount of ^14C-guanidine present inside the cells expressing the different sodium channels.
IC50 value of a test agent for a specific sodium channel may be determined using the above general method. […] The IC50 curve is calculated using the 4 Parameter Logistic Model or Sigmoidal Dose-Response Model formula (fit=(A+((B−A)/(1+((C/x)^D)))).
The fold selectivity, factor of selectivity or multiple of selectivity, is calculated by dividing the IC50 value of the test sodium channel by the reference sodium channel, for example, Nav1.5.
The Example numbers provided in Table 2 correspond to the Example numbers herein: […]

Consider `CCCCCCN1C(=O)C2(CC(=O)Oc3cc4c(cc32)OCO4)c2ccccc21` (stereo not shown) [Example 31, 1′-hexylspiro[1,3-dioxolo[4,5-g]chromene-8,3′-indole]-2′,6(1′H,7H)-dione], for which the IC50 – broadly, the concentration that inhibits the measured activity by half – in the series with sodium channel is above 1000 nM. On the same count and under the same terms, the figure for `O=C(CN1C(=O)C2(COc3cc4c(cc32)OCO4)c2ccccc21)NCc1ccc(Cl)cc1` (stereo not shown) [Example 3, N-(4-chlorobenzyl)-2-(2′-oxospiro[furo[2,3-f][1,3]benzodioxole-7,3′-indol]-1′(2′H)-yl)acetamide] is 100 to 1000 nM; for `CCCCCN1C(=O)C2(COc3cc4c(cc32)OCO4)c2c(-c3ccc(N(C)C)nc3)cccc21` (stereo not shown) [Example 4, 4′-[6-(dimethylamino)pyridin-3-yl]-1′-pentylspiro[furo[2,3-f][1,3]benzodioxole-7,3′-indol]-2′(1′H)one] it is 100 to 1000 nM; for `CCCCCN1C(=O)C2(CNC(=O)c3cc4c(cc32)OCO4)c2ccccc21` (stereo not shown) [Example 28, 1′-pentyl-6,7-dihydro-5H-spiro[1,3-dioxolo[4,5-d]isoquinoline-8,3′-indole]-2′,5(1′H)-dione] it is above 1000 nM. Same read-out and setting: in the case of `CCCCCN1C(=O)C2(COc3ccc(-c4cccnc4)cc32)c2ccccc21` (stereo not shown) [Example 48, 1′-pentyl-5-pyridin-3-ylspiro[1-benzofuran-3,3′-indol]-2′(1′H)-one] it was 100 to 1000 nM. In the case of `O=C1N(CC2CCN(c3ccccn3)CC2)c2ccccc2C12COc1cc3c(cc12)OCO3` (stereo not shown) [Example 10.86, 1′-[(1-pyridin-2-ylpiperidin-4-yl)methyl]spiro[furo[2,3-f][1,3]benzodioxole-7,3′-indol]-2′(1′H)-one], the melting point (in general, the temperature, or range, at which the solid turns liquid) fell in the range of 95 to 97 °C. Still for that read-out and setting: the figure for `O=C1N(CC2CCOCC2)c2ccccc2C12COc1cc3c(cc12)OCO3` (stereo not shown) [Example 10.35, 1′-(tetrahydro-2H-pyran-4-ylmethyl)spiro[furo[2,3-f][1,3]benzodioxole-7,3′-indol]-2′(1′H)-one] is 142 to 144 °C; for `O=C1N(Cc2ccc(C(F)(F)F)s2)c2ccccc2C12COc1cc3c(cc12)OCO3` (stereo not shown) [Example 10.73, 1′-{[5-(trifluoromethyl)-2-thienyl]methyl}spiro[furo[2,3-f][1,3]benzodioxole-7,3′-indol]-2′(1′H)-one] it is 127 to 130 °C.

Molecule `CC(C)(C)OC(=O)N1CCC(CN2C(=O)C3(COc4cc5c(cc43)C(C)(C)CO5)c3ccccc32)CC1` (stereo not shown) [Example 10.18, tert-butyl 4-[(5,5-dimethyl-2′-oxo-5,6-dihydrospiro[benzo[1,2-b:5,4-b′]difuran-3,3′-indol]-1′(2′H)-yl)methyl]piperidine-1-carboxylate] came in with a melting point of 65 to 75 °C. Consider `COc1ccc(-c2cccc3c2C2(COc4cc5c(cc42)OCO5)C(=O)N3Cc2ccc(C(F)(F)F)o2)cn1` (stereo not shown) [Example 4.6, 4′-(6-methoxypyridin-3-yl)-1′-{[5-(trifluoromethyl)-2-furyl]methyl}spiro[furo[2,3-f][1,3]benzodioxole-7,3′-indol]-2′(1′H)-one], for which the melting point was in the range of 174 to 176 °C.

For the molecule `Cc1cccc2c1C1(COc3cc4c(cc31)OCO4)C(=O)N2Cc1ccc(C(F)(F)F)o1` (stereo not shown) [Example 10.75, 4′-methyl-1′-{[5-(trifluoromethyl)-2-furyl]methyl}spiro[furo[2,3-f][1,3]benzodioxole-7,3′-indol]-2′(1′H)-one], the melting point was 117 to 119 °C. The same measure, in the same setting: the figure for `CN1C(=O)C2(COc3cc4c(cc32)OCO4)c2ccccc21` (stereo not shown) [Example 10.39, 1′-methylspiro[furo[2,3-f][1,3]benzodioxole-7,3′-indol]-2′(1′H)-one] is 142 to 144 °C; for `Cl.O=C1N(CCC2CCN(C3CCOCC3)CC2)c2ccccc2C12COc1cc3c(cc12)OCO3` (stereo not shown) it is 168 to 170 °C. The same measure, in the same setting: the figure for `Cc1noc(C)c1CN1C(=O)C2(COc3cc4c(cc32)OCO4)c2ccccc21` (stereo not shown) [Example 10.51, 1′-[(3,5-dimethylisoxazol-4-yl)methyl]spiro[furo[2,3-f][1,3]benzodioxole-7,3′-indol]-2′(1′H)-one] is 165 to 167 °C; for `O=C1Nc2cccc(-c3cccc4c3oc3ccccc34)c2C12COc1cc3c(cc12)OCO3` (stereo not shown) [Example 4.5, 4′-dibenzo[b,d]furan-4-ylspiro[furo[2,3-f][1,3]benzodioxole-7,3′-indol]-2′(1′H)-one] it is above 230 °C. On to `CCCCN1C(=O)C2(COc3cc4c(cc32)OCO4)c2ccccc21` (stereo not shown) [Example 10.33, 1′-butylspiro[furo[2,3-f][1,3]benzodioxole-7,3′-indol]-2′(1′H)-one], for which the melting point was in the range of 119 to 120 °C. Same read-out and setting: the figure for `O=C1N(Cc2cccc(OC(F)(F)F)c2)c2ccccc2C12COc1cc3c(cc12)OCO3` (stereo not shown) [Example 10.37, 1′[3-(trifluoromethoxy)benzyl]spiro[furo[2,3-f][1,3]benzodioxole-7,3′-indol]-2′(1′H)-one] is 88 to 91 °C. Still for that read-out and setting: the figure for `O=C1N(Cc2ccccc2OC(F)(F)F)c2ccccc2C12COc1cc3c(cc12)OCO3` (stereo not shown) [Example 10.36, 1′[2-(trifluoromethoxy)benzyl]spiro[furo[2,3-f][1,3]benzodioxole-7,3′-indol]-2′(1′H)-one] is 130 to 135 °C. `O=C1N(CCCC2CC2)c2ccccc2C12COc1cc3c(cc12)OCO3` (stereo not shown) [Example 10.32, 1′-(3-cyclopropylpropyl)spiro[furo[2,3-f][1,3]benzodioxole-7,3′-indol]-2′(1′H)-one] returned a melting point of 111 to 113 °C.

On to `Cn1cc(CN2C(=O)C3(COc4cc5c(cc43)OCO5)c3ccccc32)ccc1=O` (stereo not shown) [Example 10.83, 1′-[(1-methyl-6-oxo-1,6-dihydropyridin-3-yl)methyl]spiro[furo[2,3-f][1,3]benzodioxole-7,3′-indol]-2′(1′H)-one], for which the melting point was 115 to 118 °C. Same read-out and setting: in the case of `O=C1Nc2ccccc2C12COc1cc3c(cc12)CCO3` (stereo not shown) [Example 1.51, 5,6-dihydrospiro[benzo[1,2-b:5,4-b′]difuran-3,3′-indol]-2′(1′H)-one] it was 208 to 210 °C.

In turn, `O=C1N(Cc2ccc(C(F)(F)F)o2)c2ccc(F)cc2C12COc1cc3c(cc12)OCO3` (stereo not shown) [Example 1.26, 5′-fluoro-1′-{[5-(trifluoromethyl)-2-furyl]methyl}spiro[furo[2,3-f][1,3]benzodioxole-7,3′-indol]-2′(1′H)-one] registered a melting point of 139 to 141 °C.

`O=C(CN1C(=O)C2(COc3cc4c(cc32)CCO4)c2c(-c3cncnc3)cccc21)Nc1ccccc1F` (stereo not shown) [Example 4.20, N-(2-fluorophenyl)-2-(2′-oxo-4′-pyrimidin-5-yl-5,6-dihydrospiro[benzo[1,2-b:5,4-b′]difuran-3,3′-indol]-1′(2′H)-yl)acetamide] yielded a melting point of 229 to 230 °C. Same read-out and setting: the figure for `O=C1N(CCCCl)c2ccccc2C12COc1cc3c(cc12)OCO3` (stereo not shown) [Example 10.57, 1′-(3-chloropropyl)spiro[furo[2,3-f][1,3]benzodioxole-7,3′-indol]-2′(1′H)-one] is 144 to 146 °C. With `O=C1N(Cc2ccc(C(F)(F)F)o2)c2cccc(-c3cncnc3)c2C12COc1cc3c(cc12)CCO3` (stereo not shown) [Example 4.14, 4′-pyrimidin-5-yl-1′-{[5-(trifluoromethyl)-2-furyl]methyl}-5,6-dihydrospiro[benzo[1,2-b:5,4-b′]difuran-3,3′-indol]-2′(1′H)-one], the melting point lay in the range of 263 to 266 °C. On to `CC(C)c1nc(CN2C(=O)C3(COc4cc5c(cc43)OCO5)c3ccccc32)co1` (stereo not shown) [Example 10.58, 1′-[(2-isopropyl-1,3-oxazol-4-yl)methyl]spiro[furo[2,3-f][1,3]benzodioxole-7,3′-indol]-2′(1′H)-one], for which the melting point was in the range of 118 to 120 °C. Still for that read-out and setting: in the case of `CS(=O)(=O)N1C(=O)C2(COc3cc4c(cc32)OCO4)c2ccccc21` (stereo not shown) [Example 10.93, 1′-(methylsulfonyl)spiro[furo[2,3-f][1,3]benzodioxole-7,3′-indol]-2′(1′H)-one] it was 215 to 217 °C; in that of `O=C1N(Cc2ccc(Cl)s2)c2ccccc2C12COc1cc3c(cc12)OCO3` (stereo not shown) [Example 10.67, 1′-[(5-chloro-2-thienyl)methyl]spiro[furo[2,3-f][1,3]benzodioxole-7,3′-indol]-2′(1′H)-one], 145 to 146 °C.
